Measured values: PMC7397040, “New Copper(I) Complex with a Coumarin as Ligand with Antibacterial Activity against Flavobacterium psychrophilum” (Molecules, 2020)
≈ marks a conversion by molar mass, not a printed value. Like-named read-outs stand apart in the source and are kept apart here. Marks after values point to notes of the source that are not given here. Each block holds one molecule with its values, some of them ahead of it.

Tests used:
[1] = test system: Salmon Head Kidney-1 (SHK-1) cells; test: cells; details: for toxicity (in words): SHK-1, 512 to 2 μg/mL; for IC50 (cellular): SHK-1, 24 h at 16 °C, n = 6
Method: (§1) Since F. psychrophilum is a bacterial pathogen that affects a wide variety of salmonids, we evaluated the toxicity of the [Cu(NN1)2]ClO4 complex in three different cell lines, Chinook salmon embryo (CHSE-214), Salmon Head Kidney-1 (SHK-1) and intestinal epithelial cell line (RT-GUT). For this experiment 1 × 10^5 cells were treated with the different compounds (coumarin, Cu(I) salt and copper (I) complex) in a range of concentrations between 512 μg/mL and 2 μg/mL, incubated at 16 °C for 24 h.
(§2) 1 × 10^5 Cells were seeded and incubated at 16 °C for 24 h. Later, the cells were treated with compounds in concentrations from 512 μg/mL to 2 μg/mL solubilized in dimethyl sulfoxide (DMSO, Merck, Darmstadt, Germany) and incubated at 16 °C for 24 h. Subsequently, the cells were collected, pelleted and resuspended in IF buffer (1X buffer and 2% fetal bovine serum) and 1 µL propidium iodide (PI, 1 mg/mL) was added. The cellular viability (negative to PI) was analyzed by flow cytometer using FACSCanto II Cytometer (BD biosciences, University of Santiago of Chile, Santiago, RM, Chile). For positive control, cells were incubated without compounds; for death control, cells were incubated with 50% ethanol; medium control cells were treated with medium containing 1% of DMSO. To calculate the IC50 of compounds in the cell lines, they were analyzed using GraphPad Prism program 5.0 (GraphPad Software, San Diego, CA, USA), the concentrations were transformed into log (10) and the number of events normalized in percentage, for the calculation of IC50 a nonlinear regression was performed.

[2] = test system: Chinook salmon embryo (CHSE-214) cells; test: cells; details: for toxicity (in words): CHSE-214, 512 to 2 μg/mL, 24 h; for IC50 (cellular): CHSE-214, 24 h at 16 °C, n = 6
Method: as §1, §2

[3] = test system: intestinal epithelial cell line (RT-GUT); test: cells; details: for toxicity (in words) / IC50 (cellular): RT-GUT; for toxicity (in words): 512 to 2 μg/mL; for IC50 (cellular): 24 h at 16 °C, n = 6
Method: as §1, §2

[4] = test system: Flavobacterium psychrophilum 10094; test: Antibacterial test (microdilution: MIC, MBC, IC50); type: cell-based; details: for MIC: F. psychrophilum 10094, 72 h post-incubation, visual; for MIC / MBC: n = 3; for Amount Cu in MBC / Amount Cu in MIC / Amount Total in IC50 / Amount Total in MBC / Amount Total in MIC: F. psychrophilum; for Amount Cu in MBC / Amount Cu in MIC: amount of copper contained; for Amount Total in IC50 / Amount Total in MBC / Amount Total in MIC: total compound
Method: A bacterial strain of Flavobacterium psychrophilum (ETECMA) originally isolated from Salmon Coho (Oncorhynchus kisutch) in 2008 in Chiloe, Chile, was used for antibacterial test. […] The strain was cultivated in TYES broth (pH = 7.2) at 15 °C for 48 h with stirring at 180 rpm.
To determine MIC, MBC and IC50 of complex and its precursors, microdilution method was performed with some modifications. F. psychrophilum 10094 (0.4 OD600 nm = 1 × 10^8 CFU/mL, approximately) was inoculated in TYES broth pH 7.2 to 1% cell suspension in 96-well plates (Falcon) and treated with complex and its precursors in serial concentrations between 512 μg/mL to 2 μg/mL and incubated for 72 h at 15 °C with agitation at 180 rpm. The MIC was determined as the lowest compounds concentrations which inhibited bacterial grow by visual comparison with the negative control (TYES broth). […] The MBC was determined as the minimum concentration of the compounds at which the bacterial colony count was diminish to 99.9%. For determination of the half-maximal inhibitory concentration (IC50) of compounds on F. psychrophilum, the OD600 nm of each wells was measured using Nanoquant Infinite M200 Pro (TECAN, Grödig, Austria). For the correct calculation of the OD of each concentration of each compound, wells with TYES medium were used with each concentration without inoculating with F. psychrophilum, this control OD was subtracted obtaining the final OD. Data were analyzed using the GraphPad Prism program 5.0.

[5] = Stability in solution by UV-Vis spectra; type: physicochemical; details: 72 h after the solution was prepared, CHCl3, air-exposed, room temperature
Method: The spectral region below 400 nm in complex correspond at π to π* intraligand transition bands, which are similar profile of free ligand, but undergo a red-shift upon complexation to copper(I) in around 20 nm.
All the chemicals were purchased commercially and used without further purification. ^1H, ^13C NMR and 2D spectra were recorded on a Bruker Avance Neo 400 MHz spectrometer (400.133 MHz for ^1H, 40.559 MHz for ^15N and 100.613 MHz for ^13C, (University of Santiago of Chile, Santiago, RM, Chile) equipped with a 5 mm multinuclear broad-band dual probehead, incorporating a z-gradient coil. All the measurement was done in CDCl3 at 300 K. Chemical shifts (in ppm) for ^1H and ^13C were calibrated respect to the residual protonated signal of the solvent (7.26 and 77 ppm respectively) and reported relative to Me4Si. The ^15N signal in ^1H ^15N HMBC were calibrated relative to CH3NO2 (90%) in CDCl3). The following abbreviations were used to explain the multiplicities: s = singlet, d = doublet, m = multiplet. […] Electrochemical behavior was studied by cyclic voltammetry using a potentiostat CHI 620E by CH instrument equipment supplied with the electrochemical analyzer CHI software (University of Santiago of Chile, Santiago, RM, Chile). […]

[6] = Cyclic voltammetry, Cu(II)/Cu(I) oxidation potential; type: physicochemical; details: vs Ag/AgCl, CH2Cl2, 0.1 M TBAP, quasireversible, ΔE = 114 mV
Method: Voltammetry studies were also performed in order to determine the effect of new NN1 ligand on the Cu(II)/Cu(I) oxidation potential considering the well-known fact of high influence of ligands on the metal-centered HOMO energy. Consequently, measurements were registered at room temperature in −1.10 to +1.30 V vs Ag/AgCl potential range.
All the chemicals were purchased commercially and used without further purification. ^1H, ^13C NMR and 2D spectra were recorded on a Bruker Avance Neo 400 MHz spectrometer (400.133 MHz for ^1H, 40.559 MHz for ^15N and 100.613 MHz for ^13C, (University of Santiago of Chile, Santiago, RM, Chile) equipped with a 5 mm multinuclear broad-band dual probehead, incorporating a z-gradient coil. All the measurement was done in CDCl3 at 300 K. Chemical shifts (in ppm) for ^1H and ^13C were calibrated respect to the residual protonated signal of the solvent (7.26 and 77 ppm respectively) and reported relative to Me4Si. The ^15N signal in ^1H ^15N HMBC were calibrated relative to CH3NO2 (90%) in CDCl3). […] Electronic spectra were recorded on a PerkinElmer UV-VIS Lambda 25 spectrophotometer (University of Santiago of Chile, Santiago, RM, Chile) at room temperature, wavelength range between 200 and 1100 nm from 1.5 × 10^−5 mol/L solutions in dichloromethane to NN1 and [Cu(NN1)2]ClO4. […]

[7] = parameters: method as in PMID 30177987; details: versus Ag/AgCl in CH2Cl2 ref 18; cited from earlier work
[8] = F. psychrophilum 10094, 72 h post-incubation at 15 °C, OD600, n = 3
[9] = F. psychrophilum 10094, colony count diminished to 99.9%

Compound: CC#N.CC#N.CC#N.CC#N.[Cu+].[O-][Cl+3]([O-])([O-])[O-] [[Cu(CH3CN)4]ClO4]
toxicity (in words) ([1]; 24 h): concentration-dependent toxicity was observed
IC50 (cellular) [1]: 159 ± 44.6 ^a µg/mL
toxicity (in words) [2]: concentration-dependent toxicity was observed
IC50 (cellular) [2]: 59.4 ± 4.1 ^a µg/mL
toxicity (in words) ([3]; 24 h): concentration-dependent toxicity was observed
IC50 (cellular) [3]: 233.9 ± 19.5 ^a µg/mL
IC50 (bacterial) [4, 8]: 10.4 ± 0.7 ^b µg/mL
MIC [4]: 64 µg/mL
MBC [4, 9]: 64 µg/mL
Amount Cu in MBC [4]: 12.5 µg/mL
Amount Cu in MIC [4]: 12.5 µg/mL
Amount Total in IC50 [4]: 10.4 µg/mL
Amount Total in MBC [4]: 64 µg/mL
Amount Total in MIC [4]: 64 µg/mL

IC50 ([1]; 24 h, read-out: IC50 (cellular)): > 512 µg/mL
IC50 ([3]; Oncorhynchus mykiss, Epithelial cell, 24 h, read-out: IC50 (cellular)): > 512 µg/mL
IC50 ([4]; Flavobacterium psychrophilum, F. psychrophilum 10094, 72 h post-incubation at 15 °C, OD600, n = 3, read-out: IC50 (bacterial)): 160 ± 25.5 µg/mL (≈ 1.09 mM)
MIC ([4]; Flavobacterium psychrophilum, read-out: MIC): 512 µg/mL (≈ 3.5 mM)
Compound: O=c1ccc2ccccc2o1 [Coumarin, 1-benzopyran-2-one]
toxicity (in words) ([1]; 24 h): toxicity was not observed
toxicity (in words) [2]: toxicity was not observed
IC50 ([2]; CHSE-214, 24 h, read-out: IC50 (cellular)): > 512 µg/mL
toxicity (in words) ([3]; 24 h): toxicity was not observed
MBC [4, 9]: >512 µg/mL
MBC ([4]; Flavobacterium psychrophilum, 10094, F. psychrophilum 10094, colony count diminished to 99.9%, read-out: MBC): < 512 µg/mL

Compound: O=c1ccc2cc(N=Cc3ccc4ccccc4n3)ccc2o1.O=c1ccc2cc(N=Cc3ccc4ccccc4n3)ccc2o1.[Cu+].[O-][Cl+3]([O-])([O-])[O-] [[Cu(NN1)2]ClO4]
stability in solution (changes in UV-Vis spectral bands) [5]: No significant changes in the spectral bands
E1/2 Cu(II)/Cu(I) couple [6]: 0.426 V
toxicity (in words) ([1]; 24 h): concentration-dependent toxicity was observed
IC50 (cellular) [1]: 30.8 ± 1.3 ^b µg/mL
toxicity (in words) [2]: concentration-dependent toxicity was observed
IC50 (cellular) [2]: 29.1 ± 1.4 ^b µg/mL
toxicity (in words) ([3]; 24 h): concentration-dependent toxicity was observed
IC50 (cellular) [3]: 53.0 ± 3.1 ^b µg/mL
IC50 (bacterial) [4, 8]: 16.1 ± 0.9 ^c µg/mL
MIC [4]: 32 µg/mL
MBC [4, 9]: 32 µg/mL
Amount Cu in MBC [4]: 2.7 µg/mL
Amount Cu in MIC [4]: 2.7 µg/mL
Amount Total in IC50 [4]: 16.1 µg/mL
Amount Total in MBC [4]: 32 µg/mL
Amount Total in MIC [4]: 32 µg/mL

Compound: [Cu+].[O-][Cl+3]([O-])([O-])[O-].c1ccc2nc(-c3ccc4ccccc4n3)ccc2c1.c1ccc2nc(-c3ccc4ccccc4n3)ccc2c1 [[Cu(biq)2]ClO4]
E1/2 [7]: 0.96 V
